Test results reported in patent publication US20120107239A1, “Precursor of Molecular Probe for Pancreatic Islet Imaging and Use of the Same” (priority 2009, published 2012).

Columns and labels:
pancreatic islets = experiment: Three-dimensional imaging (PET) of a mouse; format: in vivo; settings: 104 μCi intravenously, ddy mouse, image 10 minutes after administration, FIG. 3
Procedure: The molecular probe (compound (6)) was used to perform three-dimensional imaging of a mouse. The molecular probe (104 μCi) was administered intravenously to a 6-week-old ddy mouse (which was male and weighted 25 g) under anesthesia. Then, the three-dimensional imaging was performed with the following PET apparatus and conditions.
Imaging apparatus: eXplore Vista (product name, manufactured by General Electric Company)
Imaging method: Static Scan
Reconstruction: 2DOSEM (Dynamic OS-EM)
The image in FIG. 3 was taken 10 minutes after the administration of the molecular probe (integrating time: 10 minutes). In FIG. 3, the portion indicated by the white circle is near the pancreas.

SU receptor = target: T1, SU receptor (Mus musculus, UniProt B2RUS7); experiment: SU receptor binding experiment ([3H]-glibenclamide displacement on dispersed pancreatic islet cells); parameters: species or system mice
T1 construct: the pancreatic islets isolated from the mice were dispersed into single cells; from tissue; host or cells: single cells dispersed from isolated mouse pancreatic islets
T1 sequence (B2RUS7 1-1588): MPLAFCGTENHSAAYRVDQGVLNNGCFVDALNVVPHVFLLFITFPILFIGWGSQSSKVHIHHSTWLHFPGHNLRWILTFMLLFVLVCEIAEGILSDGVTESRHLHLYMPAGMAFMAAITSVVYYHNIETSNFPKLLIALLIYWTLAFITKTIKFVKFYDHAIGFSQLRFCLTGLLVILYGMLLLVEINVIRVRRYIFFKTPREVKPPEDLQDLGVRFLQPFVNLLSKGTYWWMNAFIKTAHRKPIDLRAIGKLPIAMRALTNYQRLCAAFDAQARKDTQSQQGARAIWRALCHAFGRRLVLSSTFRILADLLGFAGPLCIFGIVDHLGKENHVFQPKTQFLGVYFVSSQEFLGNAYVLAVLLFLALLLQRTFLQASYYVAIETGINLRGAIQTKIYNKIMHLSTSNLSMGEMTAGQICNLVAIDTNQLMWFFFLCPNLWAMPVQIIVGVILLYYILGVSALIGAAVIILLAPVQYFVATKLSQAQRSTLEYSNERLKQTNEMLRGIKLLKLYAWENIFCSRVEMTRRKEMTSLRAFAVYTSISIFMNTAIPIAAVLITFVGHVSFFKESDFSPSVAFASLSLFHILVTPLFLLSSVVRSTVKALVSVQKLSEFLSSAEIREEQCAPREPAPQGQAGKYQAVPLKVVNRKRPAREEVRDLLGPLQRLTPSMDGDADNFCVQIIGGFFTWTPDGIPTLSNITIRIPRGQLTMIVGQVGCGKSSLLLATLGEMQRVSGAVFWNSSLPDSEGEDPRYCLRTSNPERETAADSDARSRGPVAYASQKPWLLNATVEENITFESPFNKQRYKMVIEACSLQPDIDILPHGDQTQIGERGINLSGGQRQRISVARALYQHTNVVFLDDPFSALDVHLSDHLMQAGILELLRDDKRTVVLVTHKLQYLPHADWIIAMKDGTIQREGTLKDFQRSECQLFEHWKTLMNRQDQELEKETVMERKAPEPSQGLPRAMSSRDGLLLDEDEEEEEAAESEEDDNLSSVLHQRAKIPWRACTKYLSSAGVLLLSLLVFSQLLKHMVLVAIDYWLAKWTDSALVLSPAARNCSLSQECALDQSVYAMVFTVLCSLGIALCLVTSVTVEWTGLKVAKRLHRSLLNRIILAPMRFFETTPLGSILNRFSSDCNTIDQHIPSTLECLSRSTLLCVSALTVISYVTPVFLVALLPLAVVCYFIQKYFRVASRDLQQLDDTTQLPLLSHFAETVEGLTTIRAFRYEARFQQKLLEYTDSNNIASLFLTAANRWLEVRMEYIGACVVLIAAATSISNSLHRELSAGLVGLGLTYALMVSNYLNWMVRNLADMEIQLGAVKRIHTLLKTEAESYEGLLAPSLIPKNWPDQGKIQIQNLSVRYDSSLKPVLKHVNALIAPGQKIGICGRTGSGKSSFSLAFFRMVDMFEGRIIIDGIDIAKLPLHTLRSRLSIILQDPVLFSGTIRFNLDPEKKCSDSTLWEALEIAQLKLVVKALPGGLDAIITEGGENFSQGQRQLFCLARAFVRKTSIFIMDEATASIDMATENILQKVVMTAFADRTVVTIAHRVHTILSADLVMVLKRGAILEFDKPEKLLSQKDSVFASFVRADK
T1 sequence (Q61743 whole entry partner): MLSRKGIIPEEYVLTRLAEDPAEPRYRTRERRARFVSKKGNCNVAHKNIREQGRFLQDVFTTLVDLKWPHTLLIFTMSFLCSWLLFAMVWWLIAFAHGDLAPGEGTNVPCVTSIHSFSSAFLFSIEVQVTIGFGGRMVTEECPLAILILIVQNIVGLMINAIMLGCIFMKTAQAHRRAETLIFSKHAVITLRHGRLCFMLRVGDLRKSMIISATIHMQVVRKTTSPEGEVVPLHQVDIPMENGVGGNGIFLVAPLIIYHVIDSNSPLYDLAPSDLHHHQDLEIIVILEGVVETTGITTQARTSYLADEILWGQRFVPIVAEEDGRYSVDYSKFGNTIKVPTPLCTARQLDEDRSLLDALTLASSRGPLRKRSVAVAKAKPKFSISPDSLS
Procedure: Next, the pancreatic islets isolated from the mice were dispersed into single cells to prepare 1.7×10^5 cells/sample. A solution containing [^3H]-glibendamide; which was obtained by labeling glibenclamide (4-[2-(5-Chloro-2-methoxybenzoylammo)ethyl]-N-(cyclohexylcarbamoyl)benzenesulfon amide, serving as an SU agent) with ^3H, was added to these cells so that the final concentration of the [^3H]-glibenclamide was 1.85 pmol/L. Subsequently, a reagent containing the compound (7) was added (final concentration of the compound (7): 1×10^−4 to 1×10^−12 M), and incubation was performed at room temperature for 1 hour. The reaction was stopped by filtration, and the radioactivity was measured with a liquid scintillation analyzer.
Therefore, the molecular probe expressed as the formula (7) might have a SUR1 binding site.

SUR1 = SUR1 (Homo sapiens, UniProt Q09428); settings: compared with nateglinide; cited from earlier work
SUR1, sequence (Q09428 whole entry, species assumed): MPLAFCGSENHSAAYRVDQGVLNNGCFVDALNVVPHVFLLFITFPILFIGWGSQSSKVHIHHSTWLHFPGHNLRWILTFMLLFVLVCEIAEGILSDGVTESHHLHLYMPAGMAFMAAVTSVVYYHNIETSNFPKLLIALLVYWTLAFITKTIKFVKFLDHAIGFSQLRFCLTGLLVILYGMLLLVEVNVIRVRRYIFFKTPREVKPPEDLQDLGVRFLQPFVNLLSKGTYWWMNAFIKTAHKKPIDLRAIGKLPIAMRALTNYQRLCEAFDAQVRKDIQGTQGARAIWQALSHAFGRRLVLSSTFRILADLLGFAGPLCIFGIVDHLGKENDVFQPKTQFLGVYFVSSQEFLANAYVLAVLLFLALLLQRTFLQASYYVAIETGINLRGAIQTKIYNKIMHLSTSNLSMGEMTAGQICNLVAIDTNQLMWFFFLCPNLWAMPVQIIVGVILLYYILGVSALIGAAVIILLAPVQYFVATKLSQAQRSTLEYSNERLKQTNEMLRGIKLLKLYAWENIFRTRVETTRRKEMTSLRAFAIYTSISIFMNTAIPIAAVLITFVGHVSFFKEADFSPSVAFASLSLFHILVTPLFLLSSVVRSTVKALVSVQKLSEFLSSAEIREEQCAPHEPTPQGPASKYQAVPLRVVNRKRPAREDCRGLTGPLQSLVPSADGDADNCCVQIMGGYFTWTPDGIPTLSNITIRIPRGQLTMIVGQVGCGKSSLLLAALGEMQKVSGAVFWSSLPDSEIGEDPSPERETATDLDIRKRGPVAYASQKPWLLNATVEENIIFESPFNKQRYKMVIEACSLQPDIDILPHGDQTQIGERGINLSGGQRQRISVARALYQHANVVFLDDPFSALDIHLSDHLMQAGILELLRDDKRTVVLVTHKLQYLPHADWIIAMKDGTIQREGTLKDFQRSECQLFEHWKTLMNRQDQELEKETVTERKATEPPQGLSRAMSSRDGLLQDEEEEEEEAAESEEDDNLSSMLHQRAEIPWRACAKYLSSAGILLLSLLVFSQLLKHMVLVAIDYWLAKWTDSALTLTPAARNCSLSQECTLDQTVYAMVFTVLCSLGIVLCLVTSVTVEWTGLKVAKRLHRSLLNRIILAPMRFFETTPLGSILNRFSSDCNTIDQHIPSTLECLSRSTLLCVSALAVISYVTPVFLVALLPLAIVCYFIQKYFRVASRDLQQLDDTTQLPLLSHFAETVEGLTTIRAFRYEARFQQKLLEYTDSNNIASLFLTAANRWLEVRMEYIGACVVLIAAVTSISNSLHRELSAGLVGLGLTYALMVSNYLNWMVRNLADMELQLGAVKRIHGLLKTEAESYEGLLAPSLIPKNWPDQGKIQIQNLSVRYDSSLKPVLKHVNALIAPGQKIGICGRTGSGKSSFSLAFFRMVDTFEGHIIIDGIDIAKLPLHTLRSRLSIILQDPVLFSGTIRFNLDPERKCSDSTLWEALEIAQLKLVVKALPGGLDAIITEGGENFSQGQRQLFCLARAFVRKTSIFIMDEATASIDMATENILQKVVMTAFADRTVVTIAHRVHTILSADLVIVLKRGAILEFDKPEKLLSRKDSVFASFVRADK
SUR1, sequence (Q14654 whole entry partner, species assumed): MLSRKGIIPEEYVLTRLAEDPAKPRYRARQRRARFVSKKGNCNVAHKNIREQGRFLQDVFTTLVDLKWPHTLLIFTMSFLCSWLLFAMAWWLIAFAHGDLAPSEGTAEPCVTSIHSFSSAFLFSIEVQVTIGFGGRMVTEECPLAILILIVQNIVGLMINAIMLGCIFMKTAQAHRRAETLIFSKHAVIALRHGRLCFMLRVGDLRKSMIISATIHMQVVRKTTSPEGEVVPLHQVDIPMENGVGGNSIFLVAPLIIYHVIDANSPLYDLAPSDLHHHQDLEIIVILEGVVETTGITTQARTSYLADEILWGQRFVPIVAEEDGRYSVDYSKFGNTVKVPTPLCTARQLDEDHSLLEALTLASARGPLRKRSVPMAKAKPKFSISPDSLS

O=C(O)C(CC(=O)N1C[C@H]2CCCC[C@H]2C1)Cc1ccc(OCC[18F])cc1 (stereo partly shown) [compound (6)]
PET imaging result (distinguishing the pancreas) (pancreatic islets): the approximate position of the pancreas could be distinguished noninvasively

O=C(O)[C@H](CC(=O)N1C[C@H]2CCCC[C@H]2C1)Cc1ccc(OCCF)cc1 [compound (7)]
inhibition of the bond between the SU receptor and [3H]-glibenclamide (SU receptor; compound 1×10^−4 to 1×10^−12 M, FIG. 2): inhibited the bond between the SU receptor and the [^3H]-glibenclamide in the concentration-dependent manner | EC50 (SU receptor; inhibition of [3H]-glibenclamide (1.85 pmol/L) binding, mouse islet cells 1.7×10^5 cells/sample, room temperature, 1 hour): 23.5 nM

O=C(O)[C@H](CC(=O)N1C[C@H]2CCCC[C@H]2C1)Cc1ccccc1 [mitiglinide, (+)-monocalcium bis [(2S, 3a, 7a-cis)-α-benzylhexahydro-γ-oxo-2-isoindolinebutyrate]dihydrate]
selectivity for SUR1 in vitro relative to nateglinide (SUR1): about 100 times
